Data from patent US20260207717A1, “METHODS FOR TREATING INFANTILE-ONSET POMPE DISEASE IN PEDIATRIC PATIENTS” (Amicus Therapeutics, Inc., priority 2022, published 2026).

Assays:
[1] = system: LOPD population (ERT-naïve and ERT-experienced); assay: Indirect treatment comparison, multi-level network meta regression (ML-NMR); set-up: species or system human; settings: base-case scenario, sensitivity analysis (RCT data only, FIGS. 66, 67)
Description: Moreover, a comparison of three randomized clinical trials (LOTS: alglucosidase alfa vs placebo; COMET: avalglucosidase alfa vs alglucosidase alfa; and PROPEL: cipaglucosidase alfa/miglustat vs alglucosidase alfa) share 6MWD and % predicted FVC as key primary or secondary endpoints. Using patient-level data from the PROPEL randomized clinical trial (RCT) plus aggregate published data from other RCTs, Phase I/II and open label extension trials, a multi-level network meta-regression was conducted, adjusting for various baseline covariates including previous ERT duration. The base case scenario had covariates resembling the PROPEL population (naïve and ERT-experienced) and analyzed 6MWD and FVC change from baseline at 52 weeks. […]
A systematic literature review (SLR) was conducted to identify relevant published clinical studies of ERTs in LOPD. Outcomes assessed were change from baseline in 6-minute walking distance (6MWD) (m) and in forced vital capacity (FVC; % predicted) at week 52, acknowledged by clinicians, HTA agencies and payers as key LOPD trial endpoints. […]
A base-case scenario was evaluated in which all covariates were set to the target population of the PROPEL trial. […]

[2] = system: subjects with Pompe disease; settings: LOPD, systematic review (Toscano and Schoser 2013); cited from earlier work
[3] = system: adult subjects with late-onset Pompe disease (LOPD); assay: ATB200-03 (PROPEL) trial, safety; set-up: species or system human; settings: in vivo
Excerpt: Concomitant medications and nondrug therapies were also be recorded.
Safety Analyses. Safety data was summarized using counts and percentages for categorical data and descriptive statistics (mean, standard deviation, median, minimum, maximum) for continuous data. • Efficacy Results from the ATB200-03 Trial

[4] = system: adult subjects with late-onset Pompe disease (LOPD); assay: ATB200-03 (PROPEL) phase 3 trial, efficacy; format: in vivo, human; settings: for absolute decline in percent-predicted FVC: 52 weeks; for 6MWD Baseline / FVC (% predicted) Baseline: before treatment
Description: Efficacy Analyses. The primary efficacy endpoint (i.e., change from baseline to Week 52 in 6MWD) was analyzed using a parametric analysis of covariance (ANCOVA) model to compare between the new treatment and the control. […] However, the baseline 6MWD could not be used in the model twice (both as a continuous and a categorical variable) due to the expected high point biserial correlation between them. Thus, the 6MWD continuous variable remained in the model but the categorical 6MWD was removed.

[5] = system: single fibers isolated from the white gastrocnemius of Gaa KO mice; assay: Single fiber analysis (LAMP1/LC3 co-immunofluorescence); format: in vivo
Excerpt: FIG. 17 depicts co-immunofluorescent staining of LAMP1 (green) (see for example, “B”) and LC3 (red) (see, for example, “A”) in single fibers isolated from the white gastrocnemius of Gaa KO mice treated with a vehicle, alglucosidase alfa, or ATB200. “C” depicts clearance of autophagic debris and absence of enlarged lysosome. A minimum of 30 fibers were examined from each animal.
As a result, a significant portion of muscle fibers analyzed (36-60%) from ATB200-treated mice appeared normal or near-normal.

[6] = system: LAMP1, LC3, dysferlin in muscle fibers; assay: Biomarker changes (LAMP1, LC3, dysferlin) in muscle of Gaa KO mice; format: in vivo
Description: The therapeutic effects of ATB200 and miglustat were evaluated and compared against those of Alglucosidase alfa in Gaa KO mice. For the study, male Gaa KO (3- to 4-month old) and age-matched wild-type (WT) mice were used. Alglucosidase alfa was administered via bolus tail vein intravenous (IV) injection. In the co-administration regimen, miglustat was administered via oral gavage (PO) 30 minutes prior to the IV injection of ATB200. Treatment was given biweekly. Treated mice were sacrificed after 14 days from the last administration and various tissues were collected for further analysis. Table 11 summarizes the study design:
Tissue samples were also analyzed for biomarker changes following the methods discussed in: Khanna R, et al. (2012), “The pharmacological chaperone [i.e., enzyme stabilizer] […]
Similarly, intense LC3-positive aggregates in the muscle fibers of untreated Gaa KO mice signify the presence of autophagic zones and autophagy build-up. […] A similar observation was made when the expression of LC3 was assessed using western blot. […]
Dysferlin, a protein involved in membrane repair and whose deficiency/mistrafficking is associated with a number of muscular dystrophies, was also assessed.

[7] = system: creatine kinase (CK), urinary hexose tetrasaccharide (Hex4); assay: ATB200-03 (PROPEL) trial, biomarkers; format: in vivo, human; settings: for mean urinary Glc4 concentration: ERT-experienced patients
Description: Pharmacodynamic endpoints were as follows: • change from baseline to Week 52 in serum CK level • change from baseline to Week 52 in urinary Hex4 level

[8] = ERT treatment naive population, listed as Alglucosidase alfa
[9] = overall ERT switch and ERT naïve population

Substance: [199-arginine,223-histidine]prepro-α-glucosidase (human) [alglucosidase alfa]
- relative effect on 6MWT and FVC [1]: numerically favorable versus placebo
- subjects without initial improvement during treatment [2]: > 30%
- patients who discontinued treatment due to an adverse event [3]: 2.6%
- patients with injection associated reactions (IARs) [3]: 26%
- 6MWD CFBL at Week 52 ([4]; ERT switch population): 0.0 m
- FVC (% predicted) CFBL at Week 52 ([4]; ERT switch population): −4.0 (0.9) % predicted
- absolute decline in percent-predicted FVC ([4]; ERT switch population): 4.0%
- 6MWD Baseline ([4]; ERT switch population): 334.6 (114.0) m
- FVC (% predicted) Baseline ([4]; ERT switch population): 67.5 (21.0) % predicted
- 6MWD CFBL at Week 52 ([4]; ERT switch population, listed as Alglucosidase alfa): 0.0 (7.2) m
- 6MWD CFBL at Week 52 ([4]; ERT treatment naive population): 38 m
- FVC (% predicted) CFBL at Week 52 ([4]; ERT treatment naive population): −3.6 % predicted
- 6MWD Baseline ([4]; ERT treatment naive population): 420.9 (135.7) m
- FVC (% predicted) Baseline ([4]; ERT treatment naive population): 79.1 (22.6) % predicted
- 6MWD CFBL at Week 52 [4, 8]: +38.3 (11.1) m
- FVC (% predicted) CFBL at Week 52 [4, 8]: −3.6 (1.8) % predicted
- mean change (SD) in MMT score for lower extremities ([4]; baseline to week 52): 0.9 (2.58)
- mean change in total GSGC score ([4]; baseline to week 52): 0.77 (1.8)
- 6MWD CFBL at Week 52 [4, 9]: 7 m
- 6MWD Baseline [4, 9]: 351.0 (121.3) m
- 6MWD CFBL at Week 52 ([4]; overall ERT switch and ERT naïve population, listed as Alglucosidase alfa): +7.2 (6.6) m
- GSGC compared to alglucosidase alfa ([4]; overall and ERT-experienced populations, week 52): worsening
- FVC (% predicted) CFBL at Week 52 ([4]; overall population): −4.0 (0.8) % predicted
- absolute decline in percent-predicted FVC ([4]; overall population): 4.0%
- FVC (% predicted) Baseline ([4]; overall population): 69.7 (21.5) % predicted
- Fibers with Autophagy Buildup [5]: >90%
- Fibers with Normal or Near-normal Appearance [5]: <10%
- LC3 II levels (western blot), effect on autophagy [6]: modest
- mean urinary Glc4 concentration ([7]; Week 52): 9.1 mmol/mol
- mean urinary Glc4 concentration ([7]; baseline): 7.2 mmol/mol
- mean change of CK ([7]; after 52 weeks): +15.6%
- mean change of urine Hex-4 ([7]; combined ERT switch and ERT naïve population, after 52 weeks): +11.0%
